Laboratory results: patent US8232278B2 (Gilead Sciences, Inc., priority 2005, dated 2012)
Where two headings read alike, the source gives them in different places.

Legend:
HCV replicon = assay: Anti-HCV assay / replicon assay (EC50, luciferase read-out); assay type: cell-based, hepatitis C virus (HCV); conditions: for CC50/EC50: CC50/EC50 ratio (selectivity index)
How it was run: (§1)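 Huh-7 cells carrying an HCV replicon, 6000 per well, were exposed to 3-fold serial compound dilutions (0.5% DMSO final where DMSO was used) for 3 days at 37 °C. EC50 was read by luciferase after cell lysis; CC50 was taken as 50% inhibition of cell growth.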

Huh-7 HCV replicon cells = assay: CC50 assay in Huh-7 HCV replicon cells (CellTiter-Glo); assay type: cell-based, human; conditions: 3 days, 50% cytostatic concentration
How it was run: as §1

[1] = tested on: wild-type HIV-1 strain IIIB; assay: HIV-1 assay (XTT, HIV-induced cytopathic effect in MT-2 cells); assay type: cell-based; conditions: for inhibition at 5 µM: read-out: MT2 HIV % inhib. @ 5 μM
Procedure: This assay is based on the quantification of the HIV-induced cytopathic effect by a calorimetric detection of the viability of virus-infected cells in the presence or absence of tested inhibitors. The HIV-induced cell death was determined by using as a metabolic substrate 2,3-bis(2-methoxy-4-nitro-5-sulfophenyl)-2H-tetrazolium-5-carboxanilide (hereinafter referred as XTT) which was converted only by live cells into a product with specific absorption characteristics, as described by Weislow et al., J. Natl. Cancer Inst. (1989) 81:577.
The assay protocol for the determination of EC50 includes the following steps: • 1. MT-2 cells were maintained in RPMI-1640 medium supplemented with 10% fetal bovine serum, glutamine and antibiotics. • 2. Cells were infected by the wild-type HIV-1 strain IIIB (ABI, Columbia, Md.) for 3 hours at 37° C. using a multiplicity of infection (MOI) of 0.01. • 3. Prepare a set of solutions containing various concentrations of the tested inhibitor by making 5-fold serial dilutions in 96-well plate (100 μl/well). Alternatively, test single drug concentration (100 μl/well). Distribute the infected cells into the 96-well plate containing the inhibitors (20,000 cells in 100 μl/well). Include the following control samples, untreated infected cells (100% cell death) and control drug-treated infected cells (full protection). • 4. Incubate the cells for 5 days at 37° C. • 5. Prepare XTT solution (6 mL per assay plate) at a concentration of 2 mg/mL in a phosphate-buffered saline at pH 7.4. Heat the solution in water-bath for 10 minutes at 56° C. Add 50 μl of N-methylphenazonium methasulfate (5 μg/mL) per 6 mL of XTT solution. • 6. Remove 100 μl media from each well on the assay plate. • 7. Add 100 μl of the XTT substrate solution per well and incubate at 37° C. for 45 to 60 minutes in a CO2 incubator. • 8. Add 20 μl of 2% Triton X-100 per well to inactivate the virus. • 9. Read the absorbance at 450 nm with subtracting off the background absorbance at 650 nm. • 10. Plot the percentage absorbance relative to untreated control and estimate the EC50 value as drug concentration resulting in a 50% protection of the infected cells. Alternatively, calculate the percentage of inhibition for a fixed concentration, relative to the full protection with the control drug.
This assay has been performed on a set of compounds of the invention, and results are reported in table 8 below, also indicating the nature of substituents being present in positions 4 and 6 of the pyrido[3,2-d]pyrimidine derivatives of the invention (all being amino-substituted in position 2).

[2] = CC50 assay in Huh-7 HCV replicon cells (CellTiter-Glo); assay type: cell-based, human; conditions: human, 50% cytostatic concentration
How it was run: as §1

[3] = Human immunodeficiency virus 1, MT2, 120 h, 5 μM, MT-2 cells infected with HIV-1 IIIB, 5 days, XTT
[4] = Hepatitis C virus, 72 h, human hepatoma Huh-7 cell line harbouring a HCV replicon, 3 days, luciferase luminescence, read-out: EC50

Compound | CC50/EC50 (HCV replicon) | inhibition at 5 µM [1, 3] [%] | CC50 at 3 days [2] [nM] | EC50 (HCV replicon; [4]) [nM] | also measured
6-(3,4-difluoro-phenyl)-4-ethoxy-pyrido[3,2-d]pyrimidin-2-ylamine [Example 460] | 145 |  |  |  | EC50 (HCV replicon; human hepatoma Huh-7 cell line harbouring a HCV replicon, 3 days, luciferase luminescence, read-out: EC50): 113 nM; CC50 (Huh-7 HCV replicon cells): 16300 nM; MT2 HIV % inhib. @ 5 μM ([1]; 5 μM, MT-2 cells infected with HIV-1 IIIB, 5 days, XTT): 11%
COc1ccc(-c2ccc3nc(N)nc(N4CCN(C)CC4)c3n2)cc1OC [Example 36, 2-amino-4-(N-methyl-piperazino)-6-(3,4-dimethoxyphenyl)-pyrido[3,2-d]pyrimidine] |  | 3 |  |  | 
Nc1nc(OCc2ccccc2)c2nc(-c3cccc(F)c3)ccc2n1 [Example 210, 2-amino-4-benzyloxy-6-(m-fluorophenyl)-pyrido[3,2-d]pyrimidine] | 85 |  | 18800 |  | EC50 (HCV replicon; Hepatitis C virus, Huh-7, 72 h): 220 nM; inhibition at 5 µM ([1]; Human immunodeficiency virus 1, IIIB, MT2, 120 h): 5%
Nc1nc(OCc2ccccc2)c2nc(-c3ccc(F)cc3)ccc2n1 [Example 211, 2-amino-4-benzyloxy-6-(p-fluorophenyl)-pyrido[3,2-d]pyrimidine] | 179 | 17 | 37500 | 210 | 
Nc1nc(N2CCOCC2)c2nc(-c3ccncc3)ccc2n1 [Example 226, 2-amino-4-morpholino-6-(4-pyridinyl)-pyrido[3,2-d]pyrimidine] |  | 9 |  |  | 
CCOc1nc(N)nc2ccc(-c3ccc(F)cc3)nc12 [Example 281, 2-amino-4-ethoxy-6-(p-fluorophenyl)pyrido[3,2-d]-pyrimidine] | 856 | 17 |  | 59 | CC50 (Huh-7 HCV replicon cells): 50100 nM
CC(C)Oc1nc(N)nc2ccc(-c3ccc(F)cc3)nc12 [Example 286, 2-amino-4-isopropoxy-6-(p-fluorophenyl)-pyrido[3,2-d]pyrimidine] | 1113 | 11 |  | 45 | CC50 (Huh-7 HCV replicon cells): 50100 nM
CCOCCOc1nc(N)nc2ccc(-c3ccccc3F)nc12 [Example 302, 2-amino-4-(2-ethoxyethoxy)-6-(2-fluorophenyl)-pyrido[3,2-d]pyrimidine] |  |  |  |  | melting point: 163 °C
CCOCCOc1nc(N)nc2ccc(-c3cccc(F)c3)nc12 [Example 303, 2-amino-4-(2-ethoxyethoxy)-6-(3-fluorophenyl)-pyrido[3,2-d]pyrimidine] | 89 | 8 |  | 560 | CC50 (Huh-7 HCV replicon cells): 50100 nM; melting point: 165 °C
COCCOc1nc(N)nc2ccc(-c3ccc(F)cc3)nc12 [Example 305, 2-amino-4-(2-methoxyethoxy)-6-(4-fluorophenyl)-pyrido[3,2-d]pyrimidine] | 2863 |  |  | 18 | CC50 (Huh-7 HCV replicon cells): 50100 nM; melting point: 204 °C
CC(=O)N1CCN(c2nc(N)nc3ccc(-c4ccc(F)cc4)nc23)CC1 [Example 320, 2-amino-4-(N-acetylpiperazino)-6-(4-fluorophenyl)-pyrido[3,2-d]pyrimidine] | 87 | 12 | 19900 | 230 | 
CC(=O)Nc1ccc(-c2ccc3nc(N)nc(N4CCN(C(C)=O)CC4)c3n2)cc1 [Example 340, 2-amino-4-(N-acetylpiperazino)-6-(p-acetamidophenyl)-pyrido(3,2-d)pyrimidine] |  | 4 |  |  | 
CCOc1nc(N)nc2ccc(-c3ccc(NC(C)=O)cc3)nc12 [Example 353, 2-amino-4-ethoxy-6-(p-acetamidophenyl)pyrido(3,2-d)pyrimidine] | 56 | 4 | 25100 | 450 | 
Cc1cccc(OCC(=O)N2CCN(c3nc(N)nc4ccc(-c5ccc(F)cc5)nc34)CC2)c1 [Example 370, 2-amino-4-[4-(3-methylphenoxy-acetyl)piperazin-1-yl]-6-(4-fluorophenyl)-pyrido[3,2-d]pyrimidine] | 65 |  | 3400 | 52 | 
Nc1nc(N2CCN(C(=O)COc3cccc(Cl)c3)CC2)c2nc(-c3ccc(F)cc3)ccc2n1 [Example 371, 2-amino-4-[4-(3-chlorophenoxy-acetyl)piperazin-1-yl]-6-(4-fluorophenyl)-pyrido[3,2-d]pyrimidine] | 837 |  | 25100 | 30 | 
Nc1nc(N2CCN(C(=O)COc3ccc(Cl)cc3Cl)CC2)c2nc(-c3ccc(F)cc3)ccc2n1 [Example 372, 2-amino-4-[4-(2,4-dichlorophenoxy-acetyl)piperazin-1-yl]-6-(4-fluorophenyl)-pyrido[3,2-d]pyrimidine] | 78 |  | 25100 | 320 | 
Nc1nc(N2CCN(C(=O)COc3ccc(F)cc3)CC2)c2nc(-c3ccc(F)cc3)ccc2n1 [Example 373, 2-amino-4-[4-(4-fluorophenoxy-acetyl)piperazin-1-yl]-6-(4-fluorophenyl)-pyrido[3,2-d]pyrimidine] | 148 |  | 19200 | 130 | 
COCCSc1nc(N)nc2ccc(-c3ccc(F)cc3)nc12 [Example 395] | 278 |  | 13600 |  | EC50 (HCV replicon; Hepatitis C virus, Huh-7, 72 h): 49 nM
COCCNc1nc(NC(C)=O)nc2ccc(-c3ccc(F)cc3)nc12 [Example 398, 2-acetamido-4-(2-methoxy-ethylamino)-6-(4-fluorophenyl)pyrido[3,2-d]pyrimidine] | 61 |  | 25100 | 410 | 
CCNc1nc(N)nc2ccc(-c3ccc(F)cc3)nc12 [Example 402, 2-amino-4-ethylamino-6-(4-fluorophenyl)pyrido[3,2-d]pyrimidine] | 80 |  | 30000 | 376 | 
Nc1nc(OCCF)c2nc(-c3ccc(F)cc3)ccc2n1 [Example 417, 2-amino-4-(2-fluoro-ethoxy)-6-(4-fluorophenyl)pyrido[3,2-d]pyrimidine] | 2282 |  | 25100 | 11 | 
COCCOc1nc(N)nc2ccc(-c3ccc(OC)c(OC)c3)nc12 [Example 471, 6-(3,4-dimethoxy-phenyl)-4-(2-methoxy-ethoxy)-pyrido[3,2-d]pyrimidin-2-ylamine] | 66 |  | 25100 |  | EC50 (HCV replicon; Hepatitis C virus, Huh-7, 72 h): 380 nM
CC(=O)Nc1ccc(-c2ccc3nc(N)nc(N4CCOCC4)c3n2)cc1 [Example 500, N-[4-(2-amino-4-morpholin-4-yl-pyrido[3,2-d]pyrimidin-6-yl)-phenyl]-acetamide] | 735 |  | 36000 | 49 | 
CC(C)C(=O)Nc1ccc(-c2ccc3nc(N)nc(N4CCOCC4)c3n2)cc1 [Example 501, N-[4-(2-amino-4-morpholin-4-yl-pyrido[3,2-d]pyrimidin-6-yl)-phenyl]-isobutyramide] | 149 |  | 7300 | 49 | 
Nc1ccc(-c2ccc3nc(N)nc(N4CCOCC4)c3n2)cc1 [Example 502, 6-(4-amino-phenyl)-4-morpholin-4-yl-pyrido[3,2-d]pyrimidin-2-ylamine] | 82 |  | 8100 |  | EC50 (HCV replicon; Hepatitis C virus, Huh-7, 72 h): 99 nM
COc1nc(N)nc2ccc(-c3ccc(F)cc3)nc12 [Example 504, 6-(4-fluoro-phenyl)-4-methoxy-pyrido[3,2-d]pyrimidin-2-ylamine] | 434 |  | 14300 | 33 | 
CCOc1nc(N)nc2ccc(-c3ccc(OC)nc3)nc12 [Example 546] | 68 |  | 25100 | 370 | 
CCOc1cccc(-c2ccc3nc(N)nc(OCC)c3n2)c1 [Example 549] | 53 |  | 25100 | 470 | 
